Results as given in publication PMC9822434, “Estradiol-Based Salicylaldehyde (Thio)Semicarbazones and Their Copper Complexes with Anticancer, Antibacterial and Antioxidant Activities” (Molecules, 2022).

What was measured:
Assay in all cases: MTT cytotoxicity assay
Format in all cases: cell-based, human
A549 = settings: Homo sapiens, 24 h incubation time
How it was run: (§1)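 Cells were exposed 24 h to 0–20 µM (2.5, 5, 10, 15, 20 µM) Cu(II) complexes, ligands or metal salts (equimolar ligand–CuCl2), then 0.5 mg/mL MTT for 1 h at 37 °C. Formazan was dissolved in DMSO and read at 570 nm; viability is relative to untreated control as 100%.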

DU-145 = settings: Homo sapiens; DU-145, MTT, 24 h incubation time
How it was run: as §1

MCF-7 KCR = settings: Homo sapiens, MCF7, 24 h incubation time
How it was run: as §1

MCF-7 = settings: Homo sapiens, MCF7; MCF-7, MTT, 24 h incubation time
How it was run: as §1

## C[C@]12CC[C@@H]3c4cc(C=NNC(N)=S)c(O)cc4CC[C@H]3[C@@H]1CCC2O (stereo partly shown) [estradiol-TSC, 2-((3,17 Dihydroxy-estra-1,3,5(10)-triene-2-yl)methylene)Hydrazine-1-carbothioamide]
A549
  IC50: 20.5 ± 1.07 µM
DU-145
  IC50: > 20 µM
MCF-7 KCR
  IC50: > 20 µM
MCF-7
  IC50: > 20 µM
